In patent US20160002247A1, “8-SUBSTITUTED IMIDAZOPYRIMIDINONE DERIVATIVE HAVING AUTOTAXIN INHIBITORY ACTIVITY” (THE UNIVERSITY OF TOKYO, priority 2013, published 2016) one finds IC50 data, which are given here for 59 compounds.

This test concerns the target T1, Human autotaxin enzyme (Homo sapiens, UniProt Q13822).
T1 construct: purchased R&D System
Put plainly: Evaluation of autotaxin inhibitor, Method C (Test Example 3): 18:0 Lyso PC, choline assay, Resorufin fluorescence. Type of test: biochemical. Particulars: Assay Method C (Test Example 3), human autotaxin, 18:0 Lyso PC substrate; read-out: Inhibitory Activity (autotaxin enzyme inhibitory activity, IC50 class). An outline of the steps:
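Human autotaxin in Tris-HCl pH 7.5, 150 mM NaCl, 5 mM MgCl2, 0.05% Triton X-100 reacted 2 h at room temperature with 18:0 Lyso PC (200 μM solution added). Released choline detected via choline oxidase/peroxidase/Amplex-type reagent, resorufin fluorescence (ex 531/em 598 nm); inhibition vs no-compound and no-enzyme controls, concentration-response curve.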
Take `CCCCCn1c(N2CCC[C@H]2C(=O)NC2(C(=O)O)CC2)cc(=O)n2cc(-c3ccc(Cl)cc3)nc12` [Compound 679]: the IC50 (in general, the concentration needed to halve the response being measured) is < 10 nM. The value for `CCCCCn1c(N2CCC[C@H]2C(=O)N2CCO[C@H](C(=O)O)C2)cc(=O)n2cc(-c3ccc(Cl)cc3)nc12` [Compound 680] was 10 to 100 nM; that for `CCCCCn1c(N2CCC[C@H]2C(=O)N2CCO[C@@H](C(=O)O)C2)cc(=O)n2cc(-c3ccc(Cl)cc3)nc12` [Compound 681] was < 10 nM. As for `CCCCCn1c(N2CCN(C(=O)OC(C)(C)C)CC2)cc(=O)n2cc(-c3ccc(Cl)cc3)nc12` [Compound 682], the IC50 lay within 100 to 1000 nM.

Turning to `CCCCCn1c(N2CCC[C@H]2C(=O)N(C)CC(=O)OC)cc(=O)n2cc(-c3ccc(Cl)cc3)nc12` [Compound 683], the concentration for half-maximal inhibition (IC50) lay in the range of 10 to 100 nM. With `CCCCCn1c(N2CCC[C@H]2C(=O)N(C)CC(=O)N(C)CC(=O)OC)cc(=O)n2cc(-c3ccc(Cl)cc3)nc12` [Compound 684] the figure was 10 to 100 nM; with `CCCCCn1c(N2CCC[C@H]2C(=O)NC(C)C(=O)OC)cc(=O)n2cc(-c3ccc(Cl)cc3)nc12` (some centres unmarked) [Compound 685], < 10 nM; with `CCCCCn1c(N2CCC[C@H]2C(=O)NC(CO)C(=O)OC)cc(=O)n2cc(-c3ccc(Cl)cc3)nc12` (some centres unmarked) [Compound 686], 10 to 100 nM.

Regarding `CCCCCn1c(N2CCC[C@H]2C(=O)N[C@@H](CO)C(=O)OC)cc(=O)n2cc(-c3ccc(Cl)cc3)nc12` [Compound 687], the half-maximal inhibitory concentration (IC50) fell in the range of 100 to 1000 nM. For `CCCCCn1c(N2CCC[C@H]2C(=O)N2CCC[C@@H](C(=O)OCC)C2)cc(=O)n2cc(-c3ccc(Cl)cc3)nc12` [Compound 688], the IC50 lay within 10 to 100 nM. With `CCCCCn1c(N2CCC[C@H]2C(=O)NC(C)(C)C(=O)OC)cc(=O)n2cc(-c3ccc(Cl)cc3)nc12` [Compound 689] the figure was < 10 nM. With `CCCCCn1c(N2CCC[C@H]2C(=O)N[C@@H](C)C(=O)OC)cc(=O)n2cc(-c3ccc(Cl)cc3)nc12` [Compound 690] the figure was 10 to 100 nM; with `CCCCCn1c(N2CCC[C@H]2C(=O)N2CCC[C@H](C(=O)OCC)C2)cc(=O)n2cc(-c3ccc(Cl)cc3)nc12` [Compound 691], 100 to 1000 nM.

In the case of `CCCCCn1c(N2CCC[C@H]2C(=O)N[C@H](C)C(=O)OC)cc(=O)n2cc(-c3ccc(Cl)cc3)nc12` [Compound 692], the IC50 is 10 to 100 nM. `CCCCCn1c(N2CCC[C@H]2C(=O)NC2(C(=O)OC)CC2)cc(=O)n2cc(-c3ccc(Cl)cc3)nc12` [Compound 693]: the IC50 was 10 to 100 nM. Take `CCCCCn1c(N2CCC[C@H]2C(=O)NC2CCCCNC2=O)cc(=O)n2cc(-c3ccc(Cl)cc3)nc12` (some centres unmarked) [Compound 694]: the half-inhibitory concentration (IC50) is 10 to 100 nM. The value for `CCCCCn1c(N2CCC[C@H]2C(=O)N2CCCC(C(N)=O)C2)cc(=O)n2cc(-c3ccc(Cl)cc3)nc12` (some centres unmarked) [Compound 695] was 100 to 1000 nM; that for `CCCCCn1c(N2CCC[C@H]2C(=O)N2CCCC(C(=O)OCC)C2)cc(=O)n2cc(-c3ccc(Cl)cc3)nc12` (some centres unmarked) [Compound 696] was 100 to 1000 nM. Consider `CCCCCn1c(N2CCC[C@H]2C(=O)N2CCNC(=O)C2)cc(=O)n2cc(-c3ccc(Cl)cc3)nc12` [Compound 697], for which the IC50 lay in the range of 10 to 100 nM. The value for `CCCCCn1c(N2CCC[C@H]2C(=O)N2CCNC(=O)CC2)cc(=O)n2cc(-c3ccc(Cl)cc3)nc12` [Compound 698] was 10 to 100 nM; that for `CCCCCn1c(N2CCC[C@H]2C(=O)NCC(=O)N(C)C)cc(=O)n2cc(-c3ccc(Cl)cc3)nc12` [Compound 699] was 100 to 1000 nM; that for `CCCCCn1c(N2CCC[C@H]2C(=O)NC2CCNC2=O)cc(=O)n2cc(-c3ccc(Cl)cc3)nc12` (some centres unmarked) [Compound 700] was 10 to 100 nM.

On to `CCCCCn1c(N2CCC[C@H]2C(=O)N2CCC(C(N)=O)C2)cc(=O)n2cc(-c3ccc(Cl)cc3)nc12` (some centres unmarked) [Compound 701], for which the half-inhibitory concentration (IC50) lay in the range of 100 to 1000 nM. The value for `CCCCCn1c(N2CCC[C@H]2C(=O)N[C@@H]2CCNC2=O)cc(=O)n2cc(-c3ccc(Cl)cc3)nc12` [Compound 702] was 10 to 100 nM; that for `CCCCCn1c(N2CCC[C@H]2C(=O)N(C)CC(=O)N(C)C)cc(=O)n2cc(-c3ccc(Cl)cc3)nc12` [Compound 703] was 10 to 100 nM; that for `CCCCCn1c(N2CCC[C@H]2C(=O)N(C)CC(N)=O)cc(=O)n2cc(-c3ccc(Cl)cc3)nc12` [Compound 704] was 10 to 100 nM. As to `CCCCCn1c(N2CCC[C@H]2C(=O)N[C@@H]2CNC(=O)C2)cc(=O)n2cc(-c3ccc(Cl)cc3)nc12` [Compound 705], the IC50 lay in the range of 100 to 1000 nM. With `CCCCCn1c(N2CCC[C@H]2C(=O)NCC(=O)C(C)(C)C)cc(=O)n2cc(-c3ccc(Cl)cc3)nc12` [Compound 706], the concentration for half-maximal inhibition (IC50) was 10 to 100 nM. With `CCCCCn1c(N2CCC[C@H]2C(=O)N[C@H]2CCCCNC2=O)cc(=O)n2cc(-c3ccc(Cl)cc3)nc12` [Compound 707] the figure was 100 to 1000 nM. `CCCCCn1c(N2CCC[C@H]2C(=O)N[C@H]2CCNC2=O)cc(=O)n2cc(-c3ccc(Cl)cc3)nc12` [Compound 708]: the IC50 fell in the range of 10 to 100 nM. Consider `CCCCCn1c(N2CCC[C@H]2C(=O)N[C@H](C)C(N)=O)cc(=O)n2cc(-c3ccc(Cl)cc3)nc12` [Compound 709], for which the half-maximal inhibitory concentration (IC50) is 100 to 1000 nM.

Regarding `CCCCCn1c(N2CCC[C@H]2C(=O)NC2CCCNC2=O)cc(=O)n2cc(-c3ccc(Cl)cc3)nc12` (some centres unmarked) [Compound 710], the IC50 fell in the range of 100 to 1000 nM. The value for `CCCCCn1c(N2CCC[C@H]2C(=O)N[C@@H]2CCCNC2=O)cc(=O)n2cc(-c3ccc(Cl)cc3)nc12` [Compound 711] was 100 to 1000 nM; that for `CCCCCn1c(N2CCC[C@H]2C(=O)N[C@H]2CNC(=O)C2)cc(=O)n2cc(-c3ccc(Cl)cc3)nc12` [Compound 712] was 100 to 1000 nM. In the case of `CCCCCn1c(N2CCN(C(=O)c3ccc(O)cc3)CC2)cc(=O)n2cc(-c3ccc(Cl)cc3)nc12` [Compound 713], the half-maximal inhibitory concentration (IC50) lay within 10 to 100 nM. Regarding `CCCCCn1c(NCC2(CO)COC2)cc(=O)n2cc(-c3ccc(Cl)cc3)nc12` [Compound 714], the half-inhibitory concentration (IC50) lay within 100 to 1000 nM. With `CCCCCn1c(N2CCC3(COC3)C2)cc(=O)n2cc(-c3ccc(Cl)cc3)nc12` [Compound 715] the figure was 10 to 100 nM; with `CCCCCn1c(N2CCC3(CC2)COC3)cc(=O)n2cc(-c3ccc(Cl)cc3)nc12` [Compound 716], 100 to 1000 nM; with `CCCCCn1c(OCC2(F)COC2)cc(=O)n2cc(-c3ccc(Cl)cc3)nc12` [Compound 718], 10 to 100 nM. The value for `CCCCCn1c(OCC2(C)COC2)cc(=O)n2cc(-c3ccc(Cl)cc3)nc12` [Compound 719] was 100 to 1000 nM. With `CCCCCn1c(OCC2COC2)cc(=O)n2cc(-c3ccc(Cl)cc3)nc12` [Compound 720] the figure was 100 to 1000 nM; with `CCCCCn1c(N2CCC[C@H]2C(=O)N[C@@H](Cc2c[nH]cn2)C(=O)O)cc(=O)n2cc(-c3ccc(Cl)cc3)nc12` [Compound 721], 10 to 100 nM; with `CCCCCn1c(N2CCC[C@H]2C(=O)N[C@H](C(=O)O)C(C)(C)C)cc(=O)n2cc(-c3ccc(Cl)cc3)nc12` [Compound 722], < 10 nM. As for `CCCCCn1c(N2CCC[C@H]2C(=O)N[C@H](C(=O)O)C(C)C)cc(=O)n2cc(-c3ccc(Cl)cc3)nc12` [Compound 723], the IC50 was < 10 nM. Consider `CCCCCn1c(N2CCC[C@H]2C(=O)N[C@@H](Cc2cccc3ccccc23)C(=O)O)cc(=O)n2cc(-c3ccc(Cl)cc3)nc12` [Compound 724], for which the IC50 was < 10 nM.

With `CCCCCn1c(N2CCC[C@H]2C(=O)N[C@H](Cc2ccccc2)C(=O)O)cc(=O)n2cc(-c3ccc(Cl)cc3)nc12` [Compound 725], the IC50 was in the range of 10 to 100 nM. Turning to `CCCCCn1c(N2CCC[C@H]2C(=O)N[C@@H](Cc2ccc3ccccc3c2)C(=O)O)cc(=O)n2cc(-c3ccc(Cl)cc3)nc12` [Compound 726], the half-maximal inhibitory concentration (IC50) is < 10 nM. With `CCCCCn1c(N2CCC[C@H]2C(=O)N[C@H](C(=O)O)C(c2ccccc2)c2ccccc2)cc(=O)n2cc(-c3ccc(Cl)cc3)nc12` [Compound 727], the IC50 fell in the range of 100 to 1000 nM. The value for `CCCCCn1c(N2CCC[C@H]2C(=O)N[C@@H](CCCC)C(=O)O)cc(=O)n2cc(-c3ccc(Cl)cc3)nc12` [Compound 728] was < 10 nM; that for `CCCCCn1c(N2CCC[C@H]2C(=O)N[C@@H](CC)C(=O)O)cc(=O)n2cc(-c3ccc(Cl)cc3)nc12` [Compound 729] was < 10 nM; that for `CCCCCn1c(N2CCC[C@H]2C(=O)N[C@@H](CC(C)(C)C)C(=O)O)cc(=O)n2cc(-c3ccc(Cl)cc3)nc12` [Compound 730] was < 10 nM. As for `CCCCCn1c(N2CCC[C@H]2C(=O)N[C@@H](CCC)C(=O)O)cc(=O)n2cc(-c3ccc(Cl)cc3)nc12` [Compound 731], the IC50 is < 10 nM. The value for `CCCCCn1c(N2CCC[C@H]2C(=O)N[C@H](C(=O)O)c2ccccc2)cc(=O)n2cc(-c3ccc(Cl)cc3)nc12` [Compound 732] was < 10 nM; that for `CCCCCn1c(N2CCC[C@H]2C(=O)N[C@@H](CC(C)C)C(=O)O)cc(=O)n2cc(-c3ccc(Cl)cc3)nc12` [Compound 733] was < 10 nM; that for `CCCCCn1c(N2CCC[C@H]2C(=O)N[C@@H](CC2CCCCC2)C(=O)O)cc(=O)n2cc(-c3ccc(Cl)cc3)nc12` [Compound 734] was < 10 nM.

On to `CCCCCn1c(N2CCC[C@H]2C(=O)N[C@@H](CCc2ccccc2)C(=O)O)cc(=O)n2cc(-c3ccc(Cl)cc3)nc12` [Compound 735], for which the IC50 was < 10 nM. With `CCCCCn1c(N2CCC[C@H]2C(=O)N(CC(=O)O)Cc2ccccc2)cc(=O)n2cc(-c3ccc(Cl)cc3)nc12` [Compound 736] the figure was < 10 nM; with `CCCCCn1c(N2CCC[C@H]2C(=O)NC(C)C(=O)O)cc(=O)n2cc(-c3ccc(Cl)cc3)nc12` (some centres unmarked) [Compound 737], < 10 nM; with `CCCCCn1c(N2CCC[C@H]2C(=O)N[C@H](CCCC)C(=O)O)cc(=O)n2cc(-c3ccc(Cl)cc3)nc12` [Compound 738], < 10 nM.
